Experimental data published in patent US20240116873A1, “QUINOLINE MERCAPTOACETATE SULFONAMIDE DERIVATIVE, INTERMEDIATE, PHARMACEUTICAL DERIVATIVE OR FORMULATION, AND PREPARATION METHOD AND USE THEREFOR” (JIANGSU CHIATAI QINGJIANG PHARMACEUTICAL CO., LTD., priority 2022, published 2024).
pIC50: −log10 of the molar value. Like-named read-outs stand apart in the source and are kept apart here.

What was measured:
hURAT1 = hURAT1 (Homo sapiens (Human), UniProt Q96S37); assay: In vitro inhibition of 14C-uric acid absorption in HEK-293T cells stably expressing hURAT1; assay type: cell-based
Method: It was to test the in vitro inhibitory activity (IC50) of the compound on hURAT1.
The culture medium included: a DMEM culture medium+10% of fetal calf serum+500 μg/ml G418+1% of P/S. • (2) When the cells grew to 80% full, the culture medium was removed, PBS was added to clean the cells once, and then pancreatin-EDTA was added for digestion. The culture medium was added when the cells were subjected to wall removal, and subjected to blowing and beating to make the cells fall off. The cells were centrifuged and collected. The culture medium was added, and subjected to blowing and beating to form cell suspension. • (3) The cell density was adjusted to be 7×10^5/ml, then the cells were inoculated into a 96-well cell culture plate with white wall and transparent bottom according to the amount of 100 μL/well, and cultured for 12-24 h.
3.3 Preparation of compounds • (1) The compound was prepared into a mother solution with a concentration of 20 mM by DMSO, the mother solution was diluted to reach a concentration of 1 mM by DMSO, and then the solution was added into 96 wells. • (2) Quality control compounds were additionally arranged on the 96-well plate, so as to obtain a 100 x compound plate. • (3) The solutions in corresponding wells of another 96-well plate were diluted 50 times by the Cl-free HBSS buffer solution, so as to obtain a 2 x compound plate (plate 2). • (4) A buffer solution containing 0.1 μCi/ml 14C-uric acid at a density of 30 μL/well and a 2 x diluted compound at a density of 30 μL/well into a new 96-well plate, so as to obtain a 1 x compound plate (plate 1) for later use.
3.4 Absorption of ^14C-uric acid in cells stably expressing hURAT1 • (1) An absorption test may be performed after cells in the 96-well plate were cultured and adhered to the wall. • (2) The cells were washed once by the preheated buffer solution at a density of 200 μL/well. • (3) The cells in each well were completely absorbed, and then the corresponding compounds and 0.1 μCi/ml 14C-uric acid solution were immediately added at a density of 50 μL/well. • (4) The plate added with the compounds was incubated in an incubator at 37° C. for 5 min. • (5) 150 μL of ice-cold buffer solution was immediately added into each well to stop absorption. Each well was washed for three times with the buffer solution.

OAT3 = OAT3 (Homo sapiens (Human), UniProt Q8TCC7); assay: Inhibitory effect on transporter OAT3
Method: (§1) The IC50 of compounds on URAT1, OAT1, OAT3, and OAT4 was tested, thereby providing research data for clinical application and further development of drugs.

OAT1 = OAT1 (Homo sapiens (Human), UniProt Q4U2R8); assay: Inhibitory effect on transporter OAT1
Method: as §1

[1] = system: rat model of hyperuricemia; assay: Rat model of hyperuricemia induced by oteracil potassium and hypoxanthine; assay type: in vivo; settings: P<0.05
Method: Oteracil potassium was combined with hypoxanthine to induce a rat model of hyperuricemia for effective dose exploration and dose-effect relationship research. Oteracil potassium feed was adopted for feeding to induce the rat model of hyperuricemia for time-effect relationship, pathological state-based functional mechanism confirmation, and PK-PD researches.
In the experiment, the rat model of hyperuricemia was prepared by intragastric administration of hypoxanthine and intraperitoneal injection of oteracil potassium. The single intragastric administration dose of the compound shown in Formula 1 was set to be 5 mg/kg, 10 mg/kg, 20 mg/kg, and 40 mg/kg. The single intragastric administration dose of Lesinurad in the positive control groups was set to be 10 mg/kg, 20 mg/kg, 40 mg/kg, and 80 mg/kg. […] Moreover, the compounds had no significant effect on the renal coefficient, further verifying the good safety of this product at the effective dose.

OAT4 = OAT4 (Homo sapiens (Human), UniProt Q9NSA0); assay: Inhibitory effect on transporter OAT4
Method: as §1

[2] = curve-fit parameter, hURAT1 inhibition, superscript 1 = plate1, 2 = plate2

Chain of hURAT1 (Q96S37 whole entry): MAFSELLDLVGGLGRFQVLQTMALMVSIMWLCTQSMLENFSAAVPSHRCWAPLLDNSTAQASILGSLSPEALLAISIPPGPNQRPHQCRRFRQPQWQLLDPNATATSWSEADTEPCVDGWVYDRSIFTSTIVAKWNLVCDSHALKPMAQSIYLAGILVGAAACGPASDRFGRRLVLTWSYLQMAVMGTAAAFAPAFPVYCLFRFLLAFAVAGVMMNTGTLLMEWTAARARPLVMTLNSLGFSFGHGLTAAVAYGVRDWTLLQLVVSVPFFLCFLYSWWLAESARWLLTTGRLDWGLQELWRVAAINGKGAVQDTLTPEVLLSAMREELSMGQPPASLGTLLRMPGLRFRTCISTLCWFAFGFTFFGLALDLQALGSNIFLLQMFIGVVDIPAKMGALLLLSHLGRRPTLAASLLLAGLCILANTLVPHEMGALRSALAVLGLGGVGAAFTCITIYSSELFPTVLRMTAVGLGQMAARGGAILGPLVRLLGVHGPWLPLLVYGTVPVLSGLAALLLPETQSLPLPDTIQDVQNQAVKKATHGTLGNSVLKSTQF
Chain of OAT1 (Q4U2R8 whole entry): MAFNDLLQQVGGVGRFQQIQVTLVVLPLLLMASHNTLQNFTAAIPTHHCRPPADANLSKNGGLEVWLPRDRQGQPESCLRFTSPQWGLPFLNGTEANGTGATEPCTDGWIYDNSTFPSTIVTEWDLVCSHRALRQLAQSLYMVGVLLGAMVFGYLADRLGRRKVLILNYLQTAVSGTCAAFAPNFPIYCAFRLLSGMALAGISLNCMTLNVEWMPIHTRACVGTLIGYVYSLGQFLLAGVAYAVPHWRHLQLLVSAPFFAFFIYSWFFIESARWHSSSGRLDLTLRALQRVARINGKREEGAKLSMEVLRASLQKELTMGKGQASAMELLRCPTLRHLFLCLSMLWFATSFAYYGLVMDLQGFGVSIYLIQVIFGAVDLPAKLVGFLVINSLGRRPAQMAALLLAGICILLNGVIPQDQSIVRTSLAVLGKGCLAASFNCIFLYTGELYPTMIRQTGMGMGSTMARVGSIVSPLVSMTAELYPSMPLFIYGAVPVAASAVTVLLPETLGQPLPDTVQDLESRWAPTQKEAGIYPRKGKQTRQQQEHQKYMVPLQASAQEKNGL
Chain of OAT4 (Q9NSA0 whole entry): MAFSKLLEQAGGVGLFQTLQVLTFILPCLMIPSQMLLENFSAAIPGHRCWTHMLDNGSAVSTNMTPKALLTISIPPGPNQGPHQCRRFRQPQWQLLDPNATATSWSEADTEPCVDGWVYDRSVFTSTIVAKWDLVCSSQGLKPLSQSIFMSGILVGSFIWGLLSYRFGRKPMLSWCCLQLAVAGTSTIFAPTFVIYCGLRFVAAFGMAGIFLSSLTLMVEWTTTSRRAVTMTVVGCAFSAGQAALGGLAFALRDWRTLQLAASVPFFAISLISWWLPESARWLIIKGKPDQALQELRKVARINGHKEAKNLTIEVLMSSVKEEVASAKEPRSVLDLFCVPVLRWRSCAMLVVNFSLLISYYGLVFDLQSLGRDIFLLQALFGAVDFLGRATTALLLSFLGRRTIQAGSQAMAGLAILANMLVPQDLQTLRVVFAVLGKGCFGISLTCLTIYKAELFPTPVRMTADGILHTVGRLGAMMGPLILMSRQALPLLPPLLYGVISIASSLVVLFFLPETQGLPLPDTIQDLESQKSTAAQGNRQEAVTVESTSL
Chain of OAT3 (Q8TCC7 whole entry): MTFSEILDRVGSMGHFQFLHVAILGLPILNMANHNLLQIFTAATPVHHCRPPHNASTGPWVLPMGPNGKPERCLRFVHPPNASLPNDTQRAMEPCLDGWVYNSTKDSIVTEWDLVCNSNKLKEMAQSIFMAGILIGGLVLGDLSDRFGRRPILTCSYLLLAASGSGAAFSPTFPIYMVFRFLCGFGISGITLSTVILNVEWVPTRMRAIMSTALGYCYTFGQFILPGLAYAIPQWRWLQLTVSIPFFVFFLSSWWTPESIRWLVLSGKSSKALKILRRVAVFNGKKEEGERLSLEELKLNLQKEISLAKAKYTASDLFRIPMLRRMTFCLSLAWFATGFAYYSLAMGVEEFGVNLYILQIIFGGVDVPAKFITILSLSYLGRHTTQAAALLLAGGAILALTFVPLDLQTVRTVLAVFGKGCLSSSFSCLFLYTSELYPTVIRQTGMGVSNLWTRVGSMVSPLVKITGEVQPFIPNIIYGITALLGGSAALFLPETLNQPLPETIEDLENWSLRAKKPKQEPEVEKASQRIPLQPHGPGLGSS

Q: For CCc1oc2ccccc2c1C(=O)c1cc(Br)c(O)c(Br)c1 [Benzbromarone], which BOTTOM (hURAT1) is on record?
A: 6.1

Q: And the HILLSLOPE (hURAT1)?
A: 1.20

Q: And the TOP (hURAT1)?
A: 99.1

Q: CC(C)(Sc1ccnc2ccc(C(F)(F)F)cc12)C(=O)NS(C)(=O)=O [D] was tested. Which pIC50 (OAT3) did it give?
A: < 4.00

Q: And the pIC50 (OAT1)?
A: 4.90

Q: Which results are given for O=C(O)CSc1nnc(Br)n1-c1ccc(C2CC2)c2ccccc12 [Lesinurad]?
A: serum uric acid level ([1]; model rats, single intragastric dose 40 mg/kg, vs model control group): significantly reduce; renal coefficient ([1]; rats, single intragastric dose 80 mg/kg): increased significantly

Q: With CCCN(CCC)S(=O)(=O)c1ccc(C(=O)O)cc1 [Probenecid] as the molecule, how does the “inhibitory effect on drug transporter OAT4 (in words)” value (OAT4) read?
A: a certain inhibitory effect

Q: How did the BOTTOM (hURAT1; [2]) turn out when CC(C)(Sc1ccncc1-c1ccc(C#N)c2ccccc12)C(=O)O [Verinuard, Verinurad] was run?
A: 0.00

Q: And the HILLSLOPE (hURAT1; [2])?
A: 0.75

Q: And the TOP (hURAT1; [2])?
A: 96.94

Q: And the pIC50 (hURAT1; hURAT1, HEK-293T, 14C-uric acid, 5 min at 37° C., superscript 1 = plate1, 2 = plate2)?
A: 7.26
